# Source: US20110189169A1, “COMBINATION OF HGF INHIBITOR AND PTEN AGONIST TO TREAT CANCER” (GALAXY BIOTECH, LLC, priority 2008, published 2011)
# Key:
# [1] = biological target: cMet receptor (Homo sapiens, UniProt P08581); settings: read-out: Kd, high affinity binding site; cited from earlier work
# [2] = biological target: heparin sulfate proteoglycans (HSPG); settings: read-out: Kd, low affinity binding site; cited from earlier work
# [3] = system: U-87 MG cells; assay: Subcutaneous human glioblastoma U-87 MG tumor xenograft model; type: in vivo, athymic nude mice (BALB/c-nu/nu); settings: HuL2G7 0.5 mg/kg i.v. days 12 and 18
# Description: The combination effect of HuL2G7 with Rapamycin was examined in human glioblastoma U-87 MG tumor xenograft model. Female athymic nude mice (BALB/c-nu/nu, 30 animals) were purchased from Charles River Laboratories (Kanagawa, Japan). Mice were housed in a barrier facility with 12-h light/dark cycles and provided with food and tap water ad libitum and maintained for three weeks. U-87 MG cells (2.5×10^6 in 100 μL) were suspended with 50% Matrigel (BD Biosciences) buffered with Hanks. balanced salt solution (Invitrogen Corp, Carlsbad, Calif., USA) and inoculated subcutaneously into the right-flank of each mouse. After the tumor xenografts were established, at day 12 after inoculation, mice with tumors (approximately 95-272 mm^3) were randomized into groups of 4 (n=6) based on tumor volumes so as to minimize variation in tumor volumes. Then each group was treated with vehicle, HuL2G7, Rapamycin, or both drugs. […] Tumor volumes were assessed by bilateral vernier caliper measurement at days 12, 15, 18, 22, and 26 after inoculation and calculated using the formula, length×width^2×½, where length was taken to be the longest diameter across the tumor and width the corresponding perpendicular. Tumor growth was evaluated by the following formula: T/C (%)=ΔT/ΔC×100, where ΔT and ΔC are changes in tumor volume for each treated and vehicle control group. […]
# cMet receptor, sequence (P08581 25-1390): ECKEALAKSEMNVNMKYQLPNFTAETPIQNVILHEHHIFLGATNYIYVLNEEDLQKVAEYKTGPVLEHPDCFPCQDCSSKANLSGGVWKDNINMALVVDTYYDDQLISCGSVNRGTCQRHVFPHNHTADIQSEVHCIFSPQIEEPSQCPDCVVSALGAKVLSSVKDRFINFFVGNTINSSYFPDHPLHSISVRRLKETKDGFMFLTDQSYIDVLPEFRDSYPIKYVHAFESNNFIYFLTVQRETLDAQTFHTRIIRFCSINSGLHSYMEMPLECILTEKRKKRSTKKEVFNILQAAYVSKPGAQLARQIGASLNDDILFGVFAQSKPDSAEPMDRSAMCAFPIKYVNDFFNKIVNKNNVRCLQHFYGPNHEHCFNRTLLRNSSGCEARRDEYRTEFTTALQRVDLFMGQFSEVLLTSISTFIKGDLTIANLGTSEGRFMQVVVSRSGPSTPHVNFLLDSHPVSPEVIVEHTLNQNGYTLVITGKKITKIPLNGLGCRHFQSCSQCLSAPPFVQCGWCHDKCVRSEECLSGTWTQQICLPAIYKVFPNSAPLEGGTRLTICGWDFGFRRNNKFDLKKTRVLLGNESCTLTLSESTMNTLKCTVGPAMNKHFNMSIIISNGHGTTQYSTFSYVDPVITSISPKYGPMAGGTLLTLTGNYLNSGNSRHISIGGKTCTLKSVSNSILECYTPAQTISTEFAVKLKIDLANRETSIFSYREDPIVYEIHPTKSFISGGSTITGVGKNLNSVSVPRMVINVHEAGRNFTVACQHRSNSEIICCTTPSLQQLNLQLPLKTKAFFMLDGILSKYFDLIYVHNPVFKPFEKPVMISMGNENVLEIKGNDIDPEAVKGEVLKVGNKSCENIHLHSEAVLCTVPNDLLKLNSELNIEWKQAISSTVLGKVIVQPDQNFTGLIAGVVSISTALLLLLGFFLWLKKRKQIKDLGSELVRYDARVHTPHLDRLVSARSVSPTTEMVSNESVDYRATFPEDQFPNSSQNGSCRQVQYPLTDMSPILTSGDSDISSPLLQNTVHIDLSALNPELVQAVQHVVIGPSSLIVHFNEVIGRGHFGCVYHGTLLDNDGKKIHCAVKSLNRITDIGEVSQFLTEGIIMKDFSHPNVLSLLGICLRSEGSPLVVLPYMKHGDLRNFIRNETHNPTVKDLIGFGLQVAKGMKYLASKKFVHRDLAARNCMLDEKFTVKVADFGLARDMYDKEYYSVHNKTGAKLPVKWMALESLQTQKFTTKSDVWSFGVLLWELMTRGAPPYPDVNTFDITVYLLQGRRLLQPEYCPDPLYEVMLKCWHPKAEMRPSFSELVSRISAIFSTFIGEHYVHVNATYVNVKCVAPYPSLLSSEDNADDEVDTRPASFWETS
Compound,Kd [1],Kd [2],"general observations of animals ([3]; Rapamycin 0.1 mg/kg i.p. days 12-26, or both)","T/C (%)=ΔT/ΔC×100 ([3]; day 26, Rapamycin 0.1 mg/kg i.p. once-daily days 12-26)"
"HGF: Human Hepatocyte Growth Factor, 102 kDa heterodimeric polypeptide, ligand of cMet",200 pM,1000 pM,–,–
"CO[C@H]1C[C@@H]2CC[C@@H](C)[C@@](O)(O2)C(=O)C(=O)N2CCCC[C@H]2C(=O)O[C@H]([C@H](C)C[C@@H]2CC[C@@H](O)[C@H](OC)C2)CC(=O)[C@H](C)/C=C(\C)[C@@H](O)[C@@H](OC)C(=O)[C@H](C)C[C@H](C)/C=C/C=C/C=C/1C [rapamycin, reference compound]",–,–,no abnormalities in general observations,9.6%
